39 compounds from US20130096067A1, “DROSOPHILA TUMOR STEM CELL MODEL AND USES THEREOF” (priority 2011, published 2013) can be followed below.

The assay relates to Raf-1^gof intestinal tumors. To be noted: for Log2 (fold) (luciferase activity, log2 of the fold difference relative to DMSO controls) / Fold (luciferase activity, fold difference relative to DMSO controls): screen of 480 ICCB compounds in vials, compounds fed to flies with one-day old Raf-1^gof tumors, esg-Gal4 luciferase; for Log2 (fold) (luciferase activity, log2 of the fold difference relative to DMSO controls) / Fold (luciferase activity, fold difference relative to DMSO controls) / Log2 (fold) of luciferase activity relative to DMSO controls / Fold (luciferase activity relative to DMSO controls): assessed three days later; for Fold (luciferase activity, fold difference relative to DMSO controls) / Fold (luciferase activity relative to DMSO controls): averaged from multiple wells; for Log2 (fold) of luciferase activity relative to DMSO controls / Fold (luciferase activity relative to DMSO controls): ICCB compounds fed in vials to flies with one-day old Raf-1^gof tumors.
Wherever Fold (luciferase activity relative to DMSO controls) is given: test concentration or dose not given here.
Wherever Fold (luciferase activity, fold difference relative to DMSO controls) is given: test concentration or dose not given here.
Wherever Log2 (fold) (luciferase activity, log2 of the fold difference relative to DMSO controls) is given: test concentration or dose not given here.
Wherever Log2 (fold) of luciferase activity relative to DMSO controls is given: test concentration or dose not given here.

As to `CCCCCC=CCC=CCC=CC=CC(=O)CCCC(=O)O` [5-KETOEICOSATETRAENOIC ACID], the “Log2 (fold) (luciferase activity, log2 of the fold difference relative to DMSO controls)” value is −0.316 and the “Fold (luciferase activity, fold difference relative to DMSO controls)” value came to 0.803.
As for `CCNC(=O)[C@H]1O[C@@H](n2cnc3c(N)ncnc32)[C@H](O)[C@@H]1O` [5′-N-Ethylcarboxamidoadenosine (NECA)], the “Log2 (fold) of luciferase activity relative to DMSO controls” value is reported as −0.024 and the “Fold (luciferase activity relative to DMSO controls)” value is given as 0.983 fold.
For `Br.NC1CCc2cc(O)c(O)cc2C1` (stereo not shown) [6,7-ADTN HBr], the “Log2 (fold) (luciferase activity, log2 of the fold difference relative to DMSO controls)” value is −0.383 and the “Fold (luciferase activity, fold difference relative to DMSO controls)” value was 0.767.
In the case of `O=Cc1c2[nH]c3ccccc3c2cc2[nH]c3ccccc3c12` [6-FORMYLINDOLO [3,2-B] CARBAZOLE], the “Log2 (fold) (luciferase activity, log2 of the fold difference relative to DMSO controls)” value is −0.273 and the “Fold (luciferase activity, fold difference relative to DMSO controls)” value was found to be 0.828.
On to `CCCCC[C@H](O)/C=C/[C@@H]1[C@@H](CC(=O)CCCCC(=O)O)[C@@H](O)C[C@H]1O` [6-KETO-PROSTAGLANDIN F1a], for which the “Log2 (fold) (luciferase activity, log2 of the fold difference relative to DMSO controls)” value is recorded as −0.435 and the “Fold (luciferase activity, fold difference relative to DMSO controls)” value stood at 0.740.
For the compound `CCCCCCCCCCC/C=C\C(C)(C)/C=C\CCCC(=O)O` [7,7-DIMETHYLEICOSADIENOIC ACID], the “Log2 (fold) of luciferase activity relative to DMSO controls” value is on record as 0.021 and the “Fold (luciferase activity relative to DMSO controls)” value amounted to 1.014 fold.
On to `CCCCC/C=C\C/C=C\CC1OC1C/C=C\CCCC(=O)O` (stereo not shown) [8,9-EPOXYEICOSATRIENOIC ACID], for which the “Log2 (fold) (luciferase activity, log2 of the fold difference relative to DMSO controls)” value was −0.625 and the “Fold (luciferase activity, fold difference relative to DMSO controls)” value is 0.649.
As to `CCCCC[C@H](O)/C=C/[C@@H]1[C@H](C/C=C\CCCC(=O)O)[C@@H](O)C[C@H]1O` [8-EPI-PROSTAGLANDIN F2a], the “Log2 (fold) (luciferase activity, log2 of the fold difference relative to DMSO controls)” value is on record as −0.657 and the “Fold (luciferase activity, fold difference relative to DMSO controls)” value stood at 0.634.
On to `COCc1nc2c([nH]1)c(=O)n(C)c(=O)n2CC(C)C` [8-methoxymethyl-IBMX], for which the “Log2 (fold) of luciferase activity relative to DMSO controls” value turned out to be 0.006 and the “Fold (luciferase activity relative to DMSO controls)” value is recorded as 1.004 fold.
Turning to `CCCCC/C=C\C=C\[C@@H](O)CCCCCCCC(=O)O` [9(S)-HODE], the “Log2 (fold) (luciferase activity, log2 of the fold difference relative to DMSO controls)” value is −0.398 and the “Fold (luciferase activity, fold difference relative to DMSO controls)” value is 0.759.
On to `CCCCC/C=C\C=C\[C@H](CCCCCCCC(=O)O)OO` [9(S)-HPODE], for which the “Log2 (fold) (luciferase activity, log2 of the fold difference relative to DMSO controls)” value is reported as −0.294 and the “Fold (luciferase activity, fold difference relative to DMSO controls)” value was determined as 0.816.
The corresponding values for `CCCCCCCC/C=C\CCCCCCCC(N)=O` [9,10-OCTADECENOAMIDE] are −0.454 and 0.730.
The corresponding values for `CC1=C(/C=C/C(C)=C\C=C\C(C)=C\C(=O)O)C(C)(C)CCC1` [9-CIS RETINOIC ACID] are −0.578 and 0.670.
For the compound `CCCCC[C@H](O)/C=C/[C@@H]1[C@@H](C/C=C\CCCC(=O)O)[C@@H](O)C[C@@H]1O` [9a,11b-PROSTAGLANDIN F2], the “Log2 (fold) (luciferase activity, log2 of the fold difference relative to DMSO controls)” value is on record as −0.294 and the “Fold (luciferase activity, fold difference relative to DMSO controls)” value is 0.815.
For the compound `CCCCC[C@H](O)/C=C/[C@@H]1[C@@H](C/C=C\CCCC(=O)O)[C@H](O)C[C@H]1O` [9b,11a-PROSTAGLANDIN F2], the “Log2 (fold) of luciferase activity relative to DMSO controls” value came to 0.062 and the “Fold (luciferase activity relative to DMSO controls)” value came to 1.044 fold.
As to `CC[C@@]1(O)C(=O)OCc2c1cc1n(c2=O)Cc2cc3cc(O)ccc3nc2-1` [10-hydroxycamptothecin, reference compound], the “Log2 (fold) (luciferase activity, log2 of the fold difference relative to DMSO controls)” value is on record as −0.930 and the “Fold (luciferase activity, fold difference relative to DMSO controls)” value stood at 0.525. The same compound yielded a Fold (Table 3 summary of hits, Screen ICCB, luciferase relative to DMSO, fed three consecutive days in vials) of 0.525 fold.
As for `CCCCC/C=C\CC1OC1C/C=C\C/C=C\CCCC(=O)O` (stereo not shown) [11,12-EPOXYEICOSATRIENOIC ACID], the “Log2 (fold) of luciferase activity relative to DMSO controls” value is recorded as −0.052 and the “Fold (luciferase activity relative to DMSO controls)” value was determined as 0.965 fold.
On to `CCCCC/C=C\C[C@@H](O)/C=C/C=C\C/C=C\CCCC(=O)O` [12(R)-HETE], for which the “Log2 (fold) (luciferase activity, log2 of the fold difference relative to DMSO controls)” value was −0.219 and the “Fold (luciferase activity, fold difference relative to DMSO controls)” value is 0.859.
Take `CCCCC/C=C\C[C@H](O)/C=C/C=C\C/C=C\CCCC(=O)O` [12(S)-HETE]: the “Log2 (fold) of luciferase activity relative to DMSO controls” value is 0.055 and the “Fold (luciferase activity relative to DMSO controls)” value stood at 1.039 fold.
Take `CCCCC/C=C\C[C@@H](/C=C/C=C\C/C=C\CCCC(=O)O)OO` [12(S)-HPETE]: the “Log2 (fold) (luciferase activity, log2 of the fold difference relative to DMSO controls)” value was −0.571 and the “Fold (luciferase activity, fold difference relative to DMSO controls)” value came to 0.673.
With `COCCCCCCCCCCCC(=O)O` [12-METHOXYDODECANOIC ACID], the “Log2 (fold) (luciferase activity, log2 of the fold difference relative to DMSO controls)” value is −0.320 and the “Fold (luciferase activity, fold difference relative to DMSO controls)” value is reported as 0.801.
As for `CCCCC[C@H](O)/C=C/C=C\CCCCCCCC(=O)O` [13(S)-HODE], the “Log2 (fold) of luciferase activity relative to DMSO controls” value is −0.141 and the “Fold (luciferase activity relative to DMSO controls)” value was determined as 0.907 fold.
On to `CCCCC[C@@H](/C=C/C=C\CCCCCCCC(=O)O)OO` [13(S)-HPODE], for which the “Log2 (fold) of luciferase activity relative to DMSO controls” value amounted to 0.309 and the “Fold (luciferase activity relative to DMSO controls)” value is recorded as 1.239 fold.
For `CCCCC[C@H](O)CC[C@H]1[C@H](O)CC(=O)[C@@H]1CCCCCCC(=O)O` [13,14-DIHYDRO-PGE1], in that order: 0.587 and 1.502 fold.
For `CC1=C(/C=C/C(C)=C/C=C/C(C)=C\C(=O)O)C(C)(C)CCC1` [13-CIS RETINOIC ACID], the “Log2 (fold) of luciferase activity relative to DMSO controls” value is listed as 0.074 and the “Fold (luciferase activity relative to DMSO controls)” value was found to be 1.053 fold.
Regarding `CCCCCC(=O)/C=C/C=C\CCCCCCCC(=O)O` [13-KETOOCTADECADIENOIC ACID], the “Log2 (fold) of luciferase activity relative to DMSO controls” value turned out to be 0.320 and the “Fold (luciferase activity relative to DMSO controls)” value amounted to 1.248 fold.
For the compound `CCCCCC1OC1C/C=C\C/C=C\C/C=C\CCCC(=O)O` (stereo not shown) [14,15-EPOXYEICOSATRIENOIC ACID], the “Log2 (fold) of luciferase activity relative to DMSO controls” value was determined as 0.322 and the “Fold (luciferase activity relative to DMSO controls)” value is recorded as 1.250 fold.
As to `CCCCC[C@H](O)/C=C/C=C\C/C=C\C/C=C\CCCC(=O)O` [15(S)-HETE], the “Log2 (fold) (luciferase activity, log2 of the fold difference relative to DMSO controls)” value was −0.309 and the “Fold (luciferase activity, fold difference relative to DMSO controls)” value stood at 0.807.
For `CCCCC[C@@H](/C=C/C=C\C/C=C\C/C=C\CCCC(=O)O)OO` [15(S)-HPETE], the “Log2 (fold) of luciferase activity relative to DMSO controls” value was determined as 0.361 and the “Fold (luciferase activity relative to DMSO controls)” value is 1.285 fold.
Take `CCCCCC(=O)/C=C/C=C\C/C=C\C/C=C\CCCC(=O)O` [15-KETOEICOSATETRAENOIC ACID]: the “Log2 (fold) (luciferase activity, log2 of the fold difference relative to DMSO controls)” value is listed as −0.266 and the “Fold (luciferase activity, fold difference relative to DMSO controls)” value stood at 0.832.
Take `CCCCC/C=C/C=C1/C(=O)C=C[C@@H]1C/C=C\CCCC(=O)O` [15d-Prostaglandin J2]: the “Log2 (fold) of luciferase activity relative to DMSO controls” value turned out to be 0.294 and the “Fold (luciferase activity relative to DMSO controls)” value was 1.226 fold.
With `CCCCC(C)(C)C(O)C=CC1C(O)CC(=O)C1CC=CCCCC(=O)O` (stereo not shown) [16,16-DIMETHYL-PROSTAGLANDIN E2], the “Log2 (fold) of luciferase activity relative to DMSO controls” value is on record as −0.013 and the “Fold (luciferase activity relative to DMSO controls)” value amounted to 0.991 fold.
Regarding `C=CCNC1=C2C[C@@H](C)C[C@H](OC)[C@H](O)[C@@H](C)/C=C(\C)[C@H](OC(N)=O)[C@@H](OC)/C=C\C=C(/C)C(=O)NC(=CC1=O)C2=O` [17-Allylamino-geldanamycin], the “Log2 (fold) (luciferase activity, log2 of the fold difference relative to DMSO controls)” value is reported as −0.433 and the “Fold (luciferase activity, fold difference relative to DMSO controls)” value is 0.741.
With `C#CCCCCCCCCCCCCCCCC(=O)O` [17-OCTADECYNOIC ACID], the “Log2 (fold) (luciferase activity, log2 of the fold difference relative to DMSO controls)” value is −0.358 and the “Fold (luciferase activity, fold difference relative to DMSO controls)” value is 0.780.
Regarding `O=C(O)CCC/C=C\C[C@H]1C(=O)C[C@@H](O)[C@@H]1/C=C/[C@@H](O)CCc1ccccc1` [17-PHENYL-TRINOR-PGE2], the “Log2 (fold) (luciferase activity, log2 of the fold difference relative to DMSO controls)” value is −0.253 and the “Fold (luciferase activity, fold difference relative to DMSO controls)” value was determined as 0.839.
For `CC(C)[C@@H](O)CC[C@@H](C)[C@H]1CC[C@H]2[C@@H]3CC=C4C[C@@H](O)CC[C@]4(C)[C@H]3CC[C@]12C` [24(S)-hydroxycholesterol], in that order: −0.244 and 0.844.
The corresponding values for `C=C1CCC(O)C/C1=C\C=C1\CCCC2(C)C1CCC2C(C)CCC(O)C(C)(C)O` (stereo not shown) [24,25-DIHYDROXYVITAMIN D3] are −0.363 and 0.777.
Take `C=C1CC[C@H](O)C/C1=C/C=C1\CCC[C@]2(C)[C@@H]([C@H](C)CCCC(C)(C)O)CC[C@@H]12` [25-HYDROXYVITAMIN D3]: the “Log2 (fold) of luciferase activity relative to DMSO controls” value is on record as −0.113 and the “Fold (luciferase activity relative to DMSO controls)” value turned out to be 0.925 fold.
For `CCCCC/C=C\C/C=C\C/C=C\C/C=C\CCCC(=O)N[C@H](C)CO` [(R)-METHANANDAMIDE], in that order: 0.068 and 1.049 fold.
